Experimental findings from paper PMC10107917 (ACS Medicinal Chemistry Letters, 2023) are described below.

This assay relates to furin-like enzyme activity in PANC-1 cell lysate. Description: Total furin-like enzyme activity in PANC-1 cell lysate. Format: biochemical, human. The note with it: peptide 100 µM. The method, then: The presence of furin in PANC-1 cell lysate was indicated by analyzing the release of fluorescent AMC product after incubation of furin substrate (Pyr-Arg-Thr-Lys-Arg-AMC) in the lysate, as described elsewhere.[31],[32] However, we are aware that this assay tends to reflect total furin-like enzyme activity rather than the activity of furin exclusively. This is the case because the liberation of AMC may be catalyzed not only by furin but also by an enzyme with a similar substrate preference, such as other PCs.[31] […] For comparison, the effect of a strong trypsin inhibitor, […] SFTI-1, on furin-like activity was insignificant under the same assay conditions. […] It is likely that SFTI-1 may provide protection for furin inhibitors from degradation by trypsin-like proteases. […]
µL for matriptases and 100 µL for furin. Measurements were carried out using excitation and emission wavelengths of 380 nm and 450 nm. The percentage inhibition of an enzyme was calculated relative to the control sample without an inhibitor. […]
Total furin-like enzyme inhibition/activity in PANC-1 cell lysates
Cell line and cell culture. The pancreatic cancer cell line, PANC-1, was obtained from the American Type Culture Collection, ATCC (Manassas, USA). PANC-1, a human pancreatic cancer cell line, was isolated from the pancreatic duct (ATCC, CRL-1469) and was cultured in Dulbecco’s Modified Eagle’s Medium (DMEM) by supplementing 10% fetal bovine serum (FBS) and 1% of penicillin/streptomycin (P/S). Cells were cultured at 37 °C with 5% CO2 in a humidified atmosphere. Cells were maintained in a 75 cm2 tissue culture flask. The medium was replaced every two days. The subcultivation ratio was […]
Preparation of lysates. PANC-1 cells were seeded in a Petri dishes. After 24 hours, […] were collected and centrifuged at 975 × g at 4 °C for 9 minutes. The supernatant was removed, and the cells were resuspended in a cold PBS buffer. The cells were centrifuged again at 900 × g at 4 °C for 5 minutes.
The supernatant was removed. Cells were suspended in Halt Protease Inhibitor Cocktail, EDTA-Free (100X) (Thermo Fisher Scientific). The samples were stored for 2 hours at -80°C. The samples were then defrosted and centrifuged at 16 000 × g at 4 °C for 20 minutes. The supernatant was stored at -80 […]
The inhibitory potency of selected peptides was examined in cell lysate alone or in presence of sunflower trypsin inhibitor (SFTI-1)6 sing furin fluorogenic substrate […] (Pepta Nova, Germany). Furin activity was determined by monitoring the AMC liberation over time with a plate reader. Measurements were performed using 96-well black plates (BRAND, Germany).
The general procedure was according to.7 In short: 20 µL of cell lysate (diluted 10 times with assay buffer pH 7.5 100 mM HEPES with 1 mM CaCl 2) was added to the well containing 60 µL of water, after 15 min in 37 °C 10 µL of peptide solution (final concentration in well 100 µM) was added. After 30 min incubation in 37 °C 10 µL substrate (100 µM final concentration) was added. […]
Next step was addition of appropriate peptide solution
(final concentration in well 100 µM) and 30 min incubation in 37 °C. After this time 10 µL substrate (100 µM final concentration) was added to the well. Percentage inhibition of the enzyme was calculated relative to the control sample without inhibitor.
Human serum from plasma (Sigma Aldrich, Germany) was prepared for the assay as referred previously.8 The experiments were carried out according to the procedure described before.2 The initial concentration of the peptide solutions was 1.54 mM. Each peptide solution was then diluted 10 times with human serum and incubated at 37 °C. Immediately after the start of incubation, 1, 2, 3, 5 and 24

Bridge positions count the residues as written; N and C are the ends. Peptide text beside a SMILES is read from it.

As for `CC[C@H](C)[C@@H]1NC(=O)[C@@H]2CCCN2C(=O)[C@@H]2CCCN2C(=O)[C@H]([C@@H](C)CC)NC(=O)[C@H](CO)NC(=O)[C@H](CCCCN)NC(=O)[C@H](CCCCN)NC(=O)[C@@H]2CSSC[C@H](NC1=O)C(=O)N[C@@H](Cc1ccccc1)C(=O)N[C@@H](CCCCN)C(=O)N[C@@H](CCCNC(=N)N)C(=O)N[C@@H](CCCNC(=N)N)C(=O)N2` [inhibitor 5, &^1Lys-Arg-Arg-Cys(&^2)-Lys-Lys-Ser-Ile-Pro-Pro-Ile-Cys(&^2)-Phe&^1] (cyclo(KRRCKKSIPPICF); disulfide 4-12), the “effect on furin-like activity in PANC-1 cell lysate” value (“effect on furin-like activity” for short) was “reduced furin-like activity”. Take `CC[C@H](C)[C@@H]1NC(=O)[C@@H]2CCCN2C(=O)[C@@H]2CCCN2C(=O)[C@H]([C@@H](C)CC)NC(=O)[C@H](CO)NC(=O)[C@H](CCCCN)NC(=O)[C@H](CCCCN)NC(=O)[C@@H](NC(=O)[C@H](CCCNC(=N)N)NC(=O)[C@@H](N)CCCCN)CSSC[C@@H](C(=O)N[C@@H](Cc2ccccc2)C(N)=O)NC1=O` [FI, Lys-Arg-Cys(&)-Lys-Lys-Ser-Ile-Pro-Pro-Ile-Cys(&)-Phe-NH2, reference compound] (H-KRCKKSIPPICF-NH2; disulfide 3-11; N-terminus assumed): the “effect on furin-like activity” value is recorded as “reduced furin-like activity”. Moreover, under “without SFTI-1”, the “reduction of initial enzyme activity in PANC-1 cell lysate” value is recorded as “about 50%”. For the compound `CC[C@H](C)[C@@H]1NC(=O)[C@@H]2CCCN2C(=O)[C@@H]2CCCN2C(=O)[C@H]([C@@H](C)CC)NC(=O)[C@H](CO)NC(=O)[C@H](CCCCN)NC(=O)[C@H](CCCCN)NC(=O)[C@@H]2CSSC[C@H](NC1=O)C(=O)N[C@@H](Cc1ccccc1)C(=O)N[C@@H](CCCNC(=N)N)C(=O)N[C@@H](CCCNC(=N)N)C(=O)N[C@@H](CCCNC(=N)N)C(=O)N2` [inhibitor 6, &^1Arg-Arg-Arg-Cys(&^2)-Lys-Lys-Ser-Ile-Pro-Pro-Ile-Cys(&^2)-Phe&^1] (cyclo(RRRCKKSIPPICF); disulfide 4-12), the “effect on furin-like activity” value is on record as “reduced furin-like activity”.

On to `CC[C@H](C)[C@@H]1NC(=O)[C@@H]2CCCN2C(=O)[C@@H]2CCCN2C(=O)[C@H]([C@@H](C)CC)NC(=O)[C@H](CO)NC(=O)[C@H](CCCCN)NC(=O)[C@H](CCCCN)NC(=O)[C@@H](NC(=O)[C@H](CCCNC(=N)N)NC(=O)[C@H](CCCNC(=N)N)NC(=O)[C@@H](N)CCCNC(=N)N)CSSC[C@@H](C(=O)N[C@@H](Cc2ccccc2)C(N)=O)NC1=O` [inhibitor 3, Arg-Arg-Arg-Cys(&)-Lys-Lys-Ser-Ile-Pro-Pro-Ile-Cys(&)-Phe-NH2] (H-RRRCKKSIPPICF-NH2; disulfide 4-12), for which the “effect on furin-like activity” value is on record as “reduced furin-like activity”.
